Assay [1] has as its target Butyrylcholinesterase (Rattus norvegicus, UniProt Q9JKC1). In words: Inhibitory concentration against butyrylcholinesterase of rat serum.
For assay [2], the target named is T1, Acetylcholinesterase (Rattus norvegicus, UniProt P37136).
T1 sequence (P37136 whole entry): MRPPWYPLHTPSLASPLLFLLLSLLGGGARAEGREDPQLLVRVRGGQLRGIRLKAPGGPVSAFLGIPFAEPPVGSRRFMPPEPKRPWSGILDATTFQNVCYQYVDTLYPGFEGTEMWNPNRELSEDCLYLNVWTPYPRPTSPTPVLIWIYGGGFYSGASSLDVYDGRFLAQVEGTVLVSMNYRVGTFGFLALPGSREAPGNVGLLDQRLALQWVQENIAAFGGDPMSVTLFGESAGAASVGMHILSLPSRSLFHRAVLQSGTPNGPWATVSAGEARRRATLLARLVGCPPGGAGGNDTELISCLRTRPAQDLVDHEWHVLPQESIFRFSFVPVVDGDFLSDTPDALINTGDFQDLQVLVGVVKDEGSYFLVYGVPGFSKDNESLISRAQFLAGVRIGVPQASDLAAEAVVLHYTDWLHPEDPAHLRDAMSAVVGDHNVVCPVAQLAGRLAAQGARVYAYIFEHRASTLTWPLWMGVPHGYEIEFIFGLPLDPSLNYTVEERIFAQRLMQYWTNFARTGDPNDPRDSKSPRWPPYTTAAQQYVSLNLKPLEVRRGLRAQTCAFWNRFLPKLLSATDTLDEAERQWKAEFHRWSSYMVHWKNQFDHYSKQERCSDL
In words: Inhibitory concentration against acetylcholinesterase of rat cortex homogenate.

Experimental findings from ChEMBL document CHEMBL1141877 (J Med Chem, 2005) are described below.

Butyrylcholinesterase, sequence (Q9JKC1 whole entry): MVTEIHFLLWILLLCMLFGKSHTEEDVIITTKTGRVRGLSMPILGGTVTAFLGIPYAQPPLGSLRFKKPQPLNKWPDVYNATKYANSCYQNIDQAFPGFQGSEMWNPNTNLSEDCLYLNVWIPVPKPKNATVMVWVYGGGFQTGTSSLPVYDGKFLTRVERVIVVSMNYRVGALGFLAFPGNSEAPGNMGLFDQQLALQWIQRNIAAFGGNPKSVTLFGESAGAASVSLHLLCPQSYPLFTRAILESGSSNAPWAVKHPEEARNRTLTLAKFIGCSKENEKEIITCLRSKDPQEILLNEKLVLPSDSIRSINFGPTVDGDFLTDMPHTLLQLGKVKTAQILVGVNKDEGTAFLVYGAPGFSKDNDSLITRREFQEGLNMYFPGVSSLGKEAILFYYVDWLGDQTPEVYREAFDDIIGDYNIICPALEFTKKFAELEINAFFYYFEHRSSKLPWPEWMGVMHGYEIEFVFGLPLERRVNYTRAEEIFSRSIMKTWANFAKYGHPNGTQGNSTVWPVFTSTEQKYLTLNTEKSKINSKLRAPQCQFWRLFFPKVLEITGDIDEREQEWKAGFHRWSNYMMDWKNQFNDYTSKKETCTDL

One may read the IC50 as the concentration that inhibits the measured activity by half. A higher IC50 goes with weaker potency. As for `CC1=CC2Cc3[nH]c(=O)ccc3[C@@]3(C1)[C@@H]2CCCN3C(=O)CCN(C)CCCCCCN(C)CCC(=O)N1CCC[C@@H]2C3C=C(C)C[C@]21c1ccc(=O)[nH]c1C3`, the IC50 in assay [1] stood at 67.9 µM; in assay [2], 0.0359 µM.
As for `CC1=CC2Cc3[nH]c(=O)ccc3[C@@]3(C1)[C@@H]2CCCN3C(=O)CN(C)CCCCCCCCN(C)CC(=O)N1CCC[C@@H]2C3C=C(C)C[C@]21c1ccc(=O)[nH]c1C3`, the results for the IC50 in assay [1] and in assay [2] were 65.4 µM and 0.0508 µM, respectively.
As to `CC1=CC2Cc3[nH]c(=O)ccc3[C@@]3(C1)[C@@H]2CCCN3C(=O)CN(C)CCN(C)CC(=O)N1CCC[C@@H]2C3C=C(C)C[C@]21c1ccc(=O)[nH]c1C3` [BIS(8)-HUPERZINE B], half-maximal inhibition in assay [2] (IC50) required 1.02 µM.
On to `CC1=CC2Cc3[nH]c(=O)ccc3[C@@]3(C1)[C@@H]2CCCN3C(=O)CN(C)CCCN(C)CC(=O)N1CCC[C@@H]2C3C=C(C)C[C@]21c1ccc(=O)[nH]c1C3` [BIS(9)-HUPERZINE B], for which the IC50 amounted to 60 µM in assay [1] and 0.471 µM in assay [2].
In the same order, the values of `CC1=CC2Cc3[nH]c(=O)ccc3[C@@]3(C1)[C@@H]2CCCN3C(=O)CN(C)CCCCCCN(C)CC(=O)N1CCC[C@@H]2C3C=C(C)C[C@]21c1ccc(=O)[nH]c1C3` [BIS(12)-HUPERZINE B] are 64.5 µM and 0.0762 µM.
Turning to `CC1=CC2Cc3[nH]c(=O)ccc3[C@@]3(C1)[C@@H]2CCCN3C(=O)CCN(C)CCCCCCCCN(C)CCC(=O)N1CCC[C@@H]2C3C=C(C)C[C@]21c1ccc(=O)[nH]c1C3` [BIS(16)-HUPERZINE B], the IC50 in assay [1] was 63 µM; in assay [2] it was 0.0185 µM.
Turning to `CC1=CC2Cc3[nH]c(=O)ccc3[C@@]3(C1)[C@@H]2CCCN3C(=O)CCN(C)CCCCCCCCCCN(C)CCC(=O)N1CCC[C@@H]2C3C=C(C)C[C@]21c1ccc(=O)[nH]c1C3` [BIS(18)-HUPERZINE B], the IC50 in assay [1] was 54.3 µM; in assay [2], 0.00493 µM.
In the same order, the values of `CC1=CC2Cc3[nH]c(=O)ccc3[C@@]3(C1)[C@@H]2CCCN3C(=O)CCN(C)CCCCCCCCCCCCN(C)CCC(=O)N1CCC[C@@H]2C3C=C(C)C[C@]21c1ccc(=O)[nH]c1C3` [BIS(20)-HUPERZINE B] are 88.4 µM and 0.0252 µM.
Take `CC1=C[C@H]2Cc3[nH]c(=O)ccc3[C@]3(C1)NCCC[C@H]23` [HUPERZINE B]: the results for the IC50 in assay [1] and in assay [2] were 227 µM and 19.3 µM, respectively.
